Data published in patent publication US20100216116A1, “VIRAL LATENCY MODEL” (priority 2007, published 2010).
Several values for one entry are separate records, joined by “and”; a condition that tells them apart may be missing. Equal entries are not always repeated.

B1: IFN-γ (protein, UniProt P01579 24-161, looked up)
Interferon gamma: QDPYVKEAENLKKYFNAGHSDVADNGTLFLGILKNWKEESDRKIMQSQIVSFYFKLFKNFKDDQSIQKSVETIKEDMNVKFFNSNKKKRDDFEKLTNYSVTDLNVQRKAIHELIQVMAELSPAAKTGKRKRSQMLFRG

Tests used:
Assay type in all cases: cell-based
[1] = system: dormant PRV in porcine TG neurons
[2] = system: pseudorabies virus (PRV) strain Becker in porcine trigeminal ganglion (TG) neurons
[3] = system: IE180 expression in PRV infected porcine TG neurons
[4] = system: HSV-1 strain F in porcine TG neurons

Molecule | infected neurons showing expression of late viral proteins [1] | reactivation of PRV in neurons that contained dormant virus at 120 hpi [1] | TG neurons with no detectable expression of late viral antigens [2] | infected neurons with spread of new virus to surrounding non-neuronal cells [2] | neurons with late viral antigen expression limited to the golgi without spread [2] | neurons without detectable expression of late viral proteins after withdrawal [2] | reduction of productive virus infection [2] | IE180 expression in discrete nuclear foci after withdrawal [3] | infected neurons with IE180 in discrete nuclear compartments [3] | infected neurons with localized nuclear IE180 expression [3] | infected neurons without any IE180 staining [3] | expression of HSV-1 gD protein after withdrawal [4] | productive HSV-1 infection [4] | infected neurons without detectable late viral protein expression [2] | virus spread in the inner chamber [2]
C=C[C@@]1(C)CC(=O)[C@]2(O)[C@@]3(C)[C@@H](O)CCC(C)(C)[C@@H]3[C@H](O)[C@H](OC(C)=O)[C@@]2(C)O1 [forskolin, Forskolin] | 70% | 50% |  |  |  |  |  |  |  |  |  |  |  |  | 
IFN-α |  |  | ~90% | ~4% | ~6% | 60% | 64% and 98% | no infected neurons showing IE180 protein expression in discrete nuclear foci could be detected | detected in all infected neurons | 45% | 55% | no detectable expression of HSV-1 gD protein was found in any neuron | completely abolished |  | 
B1 |  |  |  |  |  |  | 45% and 81% |  |  |  |  |  |  | Over 90% | extensive virus spread
